Assay results taken from US9499790B2, “Method for promoting differentiation of pluripotent stem cells into cardiac muscle cells” (Kyoto University, priority 2010, dated 2016).

Tests used:
Format in all cases: cell-based
Monkey ES cells = assay: Cardiac muscle cell differentiation of monkey ES cells, 6-well plate, GFP expression observed at day 14
Text: In the same manner as Example 2, the effects of promoting cardiac muscle cell differentiation were compared among KY02111 and N11474, known Wnt signaling inhibitors (IWP2, XAV939 and IWR1), proteins known to be effective in promoting cardiac muscle cell differentiation (G-CSF, IGFBP4, Dkk1 and cytokines (a mixture of bFGF, BMP4, VEGF, DKK1 and Activin A)).
The effect of BIO, a Wnt signaling activator, on the effect of promoting cardiac muscle cell differentiation of KY02111, XAV939 and IWP2 was analyzed. […]

Human iPS (253G1) = assay: Number of beating colonies of cardiac muscle cells; details: KY02111 5 μM during day 4 to 14
Experimental: (§1) The effect of promoting differentiation of each of the ES/iPS cells into cardiac muscle cells were confirmed for N11474 and KY02111 with the GFP expression level and number of beating colonies used as the indicators. Human ES cell line (Kh-1 line) (Suemori, H., et al., Efficient establishment of human embryonic stem cell lines and long-term maintenance with stable karyotype by enzymatic bulk passage. Biochem Biophys Res Commun. 345(3), 926-32 (2006)) (incorporated herein by reference) was seeded in a 6-well plate (Asahi Glass/5816-006: Ezview culture plate) in 1.2×10^6 cells/well and cultured for 22 days, with BMP4 (10 ng/ml) added during day 0 to 4 of culture and N11474 (10 μM) or KY02111 (5 μM) added during day 4 to 14 of culture. Human iPS cell lines (253G1, IMR90-1, IMR90-4 and RCHIPC0003) (Takahashi, K., et al., Induction of pluripotent stem cells from adult human fibroblasts by defined factors. Cell. 131(5), 861-72 (2007); Yu, J., et al., Induced pluripotent stem cell lines derived from human somatic cells. Science. 318(5858), 1917-20 (2007)) (these references are herein incorporated by reference) were cultured for the cardiac muscle cell differentiation in the same manner as for the human ES cells. The cardiac muscle cells from mouse ES cells (R1) were differentiated in accordance with the method described in the reference (Transient inhibition of BMP signaling by Noggin induces cardiomyocyte differentiation of mouse embryonic stem cells. Yuasa S, et al. Nat. Biotechnol. 2005 May; 23(5): 607-11; incorporated herein by reference). KY02111 (5 μM) was added for 3 days during day 6 to 9 of cardiac muscle cell differentiation culture and the beating colonies of cardiac muscle cells were analyzed at day 9. Monkey ES cells (CMK6.4) were cultured for cardiac muscle cell differentiation in the same manner as in the above (2).

Human iPS (RCHIPC0003) = assay: Number of beating colonies of cardiac muscle cells; details: KY02111 5 μM during day 4 to 14
Experimental: as §1

Monkey ES cells (CMK6.4) = assay: Number of beating colonies of cardiac muscle cells; details: Monkey ES (CMK6.4)
Experimental: as §1

mouse ES cells (R1) = assay: Number of beating colonies of cardiac muscle cells; details: KY02111 5 μM during day 6 to 9, analyzed at day 9
Experimental: as §1

Human iPS (IMR90-1) = assay: Number of beating colonies of cardiac muscle cells; details: KY02111 5 μM during day 4 to 14
Experimental: The effect of promoting differentiation of each of the ES/iPS cells into cardiac muscle cells were confirmed for N11474 and KY02111 with the GFP expression level and number of beating colonies used as the indicators. Human ES cell line (Kh-1 line) (Suemori, H., et al., Efficient establishment of human embryonic stem cell lines and long-term maintenance with stable karyotype by enzymatic bulk passage. Biochem Biophys Res Commun. 345(3), 926-32 (2006)) (incorporated herein by reference) was seeded in a 6-well plate (Asahi Glass/5816-006: Ezview culture plate) in 1.2×10^6 cells/well and cultured for 22 days, with BMP4 (10 ng/ml) added during day 0 to 4 of culture and N11474 (10 μM) or KY02111 (5 μM) added during day 4 to 14 of culture. […] KY02111 (5 μM) was added for 3 days during day 6 to 9 of cardiac muscle cell differentiation culture and the beating colonies of cardiac muscle cells were analyzed at day 9. […] The effect of BIO, a Wnt signaling activator, on the effect of promoting cardiac muscle cell differentiation of KY02111, XAV939 and IWP2 was analyzed. […] The synergistic effects between KY02111 and a known Wnt signaling inhibitor XAV939 or IWP2 in the promotion of cardiac muscle cell differentiation were analyzed.

[1] = test system: Wnt signaling target genes in human iPS cells; assay: Gene expression analysis by DNA array and quantitative polymerase chain reaction; parameters: expressions of genes by DNA array (HOXA1, MSGN1, NKD1, T, TNFRSF11B, DKK1, DKK4, CDX2, MSX1, NODAL, FGF4 and others): dose or concentration left out as unconfirmed
Experimental: (in the order of the genes whose expression were reduced most 12 hours later) HOXA1, MSGN1, NKD1, T, TNFRSF11B, DKK1, DKK4, CDX2, MSX1, NODAL, FGF4, PAPPA, PRRX1, LRAT, CYP1B1, SLC34A2, AXIN2, LGL1, SPS, MIXL1, APCDD1 and DSEL. […] The analyzed genes were as follows: MSGN1, HOXA1; T, MIXL1; Dkk1, AXIN2; NODAL and FGF4 (all known as Wnt signaling target genes).

[2] = KY02111 5 μM during day 4 to 8, singly

SMILES: COc1ccc(CCC(=O)Nc2nc3ccc(Cl)cc3s2)cc1OC [KY02111, 2-(3-(3,4-dimethoxyphenyl)propanamide)-6-chlorobenzothiazole]
- increase in the GFP expression level (Monkey ES cells; 10 μM during day 4 to 10, GFP at day 14): 7400%
- effect of promoting cardiac muscle cell differentiation (GFP expression), comparison with Wnt signaling inhibitors and proteins (Monkey ES cells; 10 μM during day 4 to 10, GFP at day 14, FIG. 10): strongest effect of promoting cardiac muscle cell differentiation
- effect of BIO on the compound's effect of cardiac muscle cell differentiation (GFP expression) (Monkey ES cells; BIO 5 μM added together with the compound during day 4 to 10, GFP at day 14): did not inhibit
- increase in the GFP expression level versus Control (DMSO) (Monkey ES cells; [2]): about 30 times
- proportion of beating colonies (Monkey ES cells; [2]): about 30%
- ratio of number of GFP colonies (Monkey ES cells; [2]): ~73%
- Beating cardiac muscle cell differentiation efficiency (Control (DMSO) = 100%) (Human iPS (253G1)): 1500% (KY02111)
- Beating cardiac muscle cell differentiation efficiency (Control (DMSO) = 100%) (Human iPS (RCHIPC0003)): 100% (KY02111)
- Beating cardiac muscle cell differentiation efficiency (Control (DMSO) = 100%) (Monkey ES cells (CMK6.4)): 1850% (KY02111)
- Beating cardiac muscle cell differentiation efficiency (Control (DMSO) = 100%) (mouse ES cells (R1)): 200% (KY02111)
- Beating cardiac muscle cell differentiation efficiency (Control (DMSO) = 100%) (Human iPS (IMR90-1)): 6100% (KY02111)
- expressions of genes by DNA array (HOXA1, MSGN1, NKD1, T, TNFRSF11B, DKK1, DKK4, CDX2, MSX1, NODAL, FGF4 and others) ([1]; 12 hours and 24 hours after the addition): reduced
- expressions of MSGN1, HOXA1, T, MIXL1, Dkk1, AXIN2, NODAL and FGF4 (Wnt signaling target genes) by qPCR ([1]; FIG. 9): reduced
- expression of MSGN1, HOXA1, T, Dkk1 and FGF4 by qPCR ([1]; confirmation of DNA array, FIG. 8): same results as the DNA array analysis
